Values quoted from earlier work as cited in patent US20130040915A1, “PHARMACEUTICAL COMPOSITION” (CAPITAL, BUSINESS Y GESTION DE FINANZAS, S.L., priority 2010, published 2013).

Legend:
[1] = tested on: tumor-induced hypercalcaemia; settings: subcutaneous infusion
[2] = high concentrations, of the order of 4.8 mg/ml
[3] = not given; remark: listed apart in the source
[4] = tested on: adipose tissue cell membranes; settings: concentrations of 1%

O=P(O)(O)C(O)(Cn1ccnc1)P(=O)(O)O [Zoledronic acid]
chemical stability in autoclave sterilization condition: chemically very stable

O=P(O)(O)C(Cl)(Cl)P(=O)(O)O [clodronate]
tolerability ([1]; 1500 mg in 50 to 1000 ml, 2 to 24 hours): well tolerated | control of tumor-induced hypercalcaemia (lowering the level of calcium) ([1]; 149 patients, 254 infusions): effective

O=C([O-])CC(O)(CC(=O)[O-])C(=O)[O-].[Na+].[Na+].[Na+] [sodium citrate]
pain after a subcutaneous injection compared with a solution with histidine [2]: more pain

C[C@H](CCC(=O)NCCS(=O)(=O)O)[C@H]1CC[C@H]2[C@@H]3[C@H](O)C[C@@H]4C[C@H](O)CC[C@]4(C)[C@H]3C[C@H](O)[C@]12C [sodium taurocholate]
pKa [3]: 1.4

sodium deoxycholate
pKa [3]: 6.58 | solubility ([3]; pH 7.4 of the skin): sparingly soluble | effect on adipose tissue cell membranes [4]: non-specific rupture of adipose tissue cell membranes
